Results on 14 compounds are retold here after US20220073536A1 (Rigel Pharmaceuticals, Inc., priority 2003, published 2022).

The structures appear in SMILES notation. Like-named read-outs stand apart in the source and are kept apart here.

The assay concerns cultured human mast cells (CHMC). The experiment in a line: CHMC low cell density IgE activation: tryptase assay. The conditions noted are these: IgE activation. The assay is classed as cell-based. The gist of the method:
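Tryptase release was read from supernatant with a fluorogenic substrate (30 min, room temperature) after anti-IgE challenge of cultured human mast cells (1000–1500 cells/well, low density) for 30 minutes at 37° C.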

[1] abbreviates: Homo sapiens, Mast cell, low cell density CHMC, tryptase, 3 pt, read-out: LD Tryptase, CHMC, IgE, 3 pt.
The mark [2] stands for this setting: low cell density CHMC, tryptase release, 8 pt, read-out: LD Tryptase, CHMC, IgE, 8 pt.
Where [3] appears, read: Homo sapiens, Mast cell, low cell density CHMC, tryptase release, 8 pt, read-out: LD Tryptase, CHMC, IgE, 8 pt.
Where [4] appears, read: Homo sapiens, Mast cell, low cell density, 3 pt, read-out: LD Tryptase, CHMC, IgE, 3 pt.

As for `COc1ccc(Nc2nc(Nc3ccc4c(cnn4CC4CC4)c3)ncc2F)cc1Cl` [Compound 734, N4-(3-Chloro-4-methoxyphenyl)-N2-[1-(cyclopropylmethyl)indazol-5-yl]-5-fluoro-2,4-pyrimidinediamine], the IC50 (Homo sapiens, Mast cell, low cell density CHMC, tryptase, 8 pt, read-out: LD Tryptase, CHMC, IgE, 8 pt) was < 10 µM.

As for `CNC(=O)Cn1ccc2cc(Nc3ncc(F)c(Nc4ccc5c(n4)NC(=O)C(C)(C)O5)n3)ccc21` [Compound 683, N4-(2,2-Dimethyl-3-oxo-4H-5-pyrid[1,4]oxazin-6-yl)-5-fluoro-N2-[1-(N-methylamino)carbonylmethyleneindol-5-yl]-2,4-pyrimidinediamine], the IC50 is, setting by setting: (low cell density CHMC, tryptase, 3 pt, read-out: LD Tryptase, CHMC, IgE, 3 pt) < 10 µM; (low cell density CHMC, tryptase, 8 pt, read-out: LD Tryptase, CHMC, IgE, 8 pt) < 10 µM.

On to `COc1ccc(Nc2nc(Nc3ccc4c(cnn4CC4CCC4)c3)ncc2F)cc1Cl` [Compound 726, N4-(3-Chloro-4-methoxyphenyl)-N2-[1-(cyclobutylmethyl)indazol-5-yl]-5-fluoro-2,4-pyrimidinediamine], for which the IC50 under setting [1] is < 10 µM.

As to `CC1C(=O)Nc2cc(Nc3nc(Nc4cccc(O)c4)ncc3F)ccc2S1(=O)=O` (racemic) [Compound 284, racemic-5-Fluoro-N2-[3-hydoxyphenyl]-N4-(2-methyl-1,1,3-trioxo-2H,4H-benzo[1,4]thiazin-6-yl)-2,4-pyrimidinediamine], the IC50 under setting [2] was < 10 µM.

For `COc1cc(Nc2ncc(F)c(Nc3ccc4c(c3)NC(=O)C(C)(C)S4(=O)=O)n2)cc(OC)c1OC` [Compound 269], under setting [3], the IC50 is < 10 µM.

In the case of `Fc1cnc(Nc2cc(Cl)cc(Cl)c2)nc1Nc1ccc2c(c1)OC(F)(F)O2` [Compound 565], for the setting “low cell density CHMC, tryptase release, 3 point, read-out: LD Tryptase, CHMC, IgE, 3 pt”, the IC50 was < 10 µM.

For `Cn1nc(N)c2cc(Nc3ncc(F)c(Nc4ccc5c(c4)NC(=O)C(C)(C)O5)n3)ccc21` [Compound 806, N2-(3-Amino-1-methylindazol-5-yl)-N4-(2,2-dimethyl-3-oxo-4H-benz[1,4]oxazin-6-yl)-5-fluoro-2,4-pyrimidinediamine], the IC50 under setting [3] is < 10 µM.

With `COc1cc(Nc2ncc(F)c(Nc3ccc4c(c3)OCO4)n2)cc(C(F)(F)F)c1` [Compound 373, 5-Fluoro-N4-(3,4-methylenedioxyphenyl)-N2-(3-methoxy-5-trifluoromethylphenyl)-2,4-pyrimidinediamine], the IC50 under setting [1] is < 10 µM.

Turning to `CCOCCCn1ncc2cc(Nc3ncc(F)c(Nc4ccc(Cl)c(Cl)c4)n3)ccc21` [Compound 872, N4-(3,4-Dichlorophenyl)-N2-[1-(3-ethoxypropyl)indazol-5-yl]-5-fluoro-2,4-pyrimidinediamine], the IC50 under setting [4] was < 10 µM.

Consider `CC(C)(C)C(=O)NCCCn1ncc2cc(Nc3ncc(F)c(Nc4ccc5c(n4)NC(=O)C(C)(C)O5)n3)ccc21` [Compound 852, N4-(2,2-Dimethyl-3-oxo-4H-5-pyrido[1,4]oxazin-6-yl)-5-fluoro-N2-[1-(3-pivalamidopropyl)indazol-5-yl]-2,4-pyrimidinediamine], for which the IC50 under setting [2] was < 10 µM.

As to `CC1C(=O)Nc2cc(-c3nc(Nc4ccc5oncc5c4)nc(N)c3F)ccc2S1(=O)=O` (racemic) [Compound 929], the IC50 under setting [4] is < 10 µM.

Take `COCCCn1ncc2cc(Nc3ncc(F)c(Nc4ccc5c(n4)NC(=O)C(C)(C)O5)n3)ccc21` [Compound 814, N4-(2,2-Dimethyl-3-oxo-4H-5-pyrid[1,4]oxazin-6-yl)-5-fluoro-N2-[1-(3-methoxypropyl)indazol-5-yl]-2,4-pyrimidinediamine]: the IC50 under setting [2] is < 10 µM.

For `CCN(CC)Cc1nc2cc(Nc3ncc(F)c(Nc4ccc5c(n4)NC(=O)C(C)(C)O5)n3)ccc2n1C` [Compound 974, N2-[2-(N,N-Diethylaminomethyl)-1-methylbenzimidazol-5-yl]-N4-(2,2-dimethyl-3-oxo-4H-5-pyrido[1,4]oxazin-6-yl)-5-fluoro-2,4-pyrimidinediamine], the IC50 runs as follows: (low cell density, 3 pt, read-out: LD Tryptase, CHMC, IgE, 3 pt) < 10 µM; (low cell density, 8 pt, read-out: LD Tryptase, CHMC, IgE, 8 pt) < 10 µM.

On to `Cn1nc(N)c2cc(Nc3ncc(F)c(Nc4ccc(Cl)c(Cl)c4)n3)ccc21` [Compound 805, N2-(3-Amino-1-methylindazol-5-yl)-N4-(3,4-dichlorophenyl)-5-fluoro-2,4-pyrimidinediamine], for which the IC50 under setting [3] was < 10 µM.
